# Measurements reported in patent publication US20230295197A1, “STAT5 and STAT6 Degraders and Uses Thereof” (REGENTS OF THE UNIVERSITY OF MICHICAN, priority 2022, published 2023).
# Read-outs that look alike come from different tables or passages of the source.
# Tested on: STAT5
# Assay: Immunoblotting (Western blot) analysis of STAT5 degradation efficiency of degraders in treated cells
# Type: cell-based
# In short: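 Treatment of cells with degraders at stated concentrations and exposure times comes first. Lysates are then equalised for total protein by BCA, and the proteins are separated, transferred and immunostained for STAT6 or STAT5 alongside GAPDH. Signal is quantified from infrared fluorescence.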
# [1] = MOLM-16 cells, numeric bound, read-out: DC50 S5 MOLM-16
# [2] = KU-812 cells, read-out: DC50 S5 KU-812
# [3] = SKNO1 cells, read-out: DC50 S5 SKNO1
DC50 [1],DC50 [2],DC50 [3],"DC50 (MOLM-16 cells, class symbols, read-out: DC50 S5 MOLM-16)",Compound
,100 to 1000 nM,100 to 1000 nM,,"CN(CCCC#Cc1cccc2c1CN(C1CCC(=O)NC1=O)C2=O)C(=O)CCN(C(=O)[C@@H]1CCCN1C(=O)[C@@H](NC(=O)c1cc2cc(C(F)(F)P(=O)(O)O)ccc2s1)C(C)(C)C)c1ccc2scnc2c1 (stereo partly drawn) [Compound 684, ((2-(((2S)-1-((2S)-2-(benzo[d]thiazol-5-yl(3-((5-(2-(2,6-dioxopiperidin-3-yl)-1-oxoisoindolin-4-yl)pent-4-yn-1-yl)(methyl)amino)-3-oxopropyl)carbamoyl)pyrrolidin-1-yl)-3,3-dimethyl-1-oxobutan-2-yl)carbamoyl)benzo[b]thiophen-5-yl)difluoromethyl)phosphonic acid]"
> 300 nM,,> 10000 nM,,"CC(C)(C)[C@H](NC(=O)c1cc2cc(C(F)(F)P(=O)(O)O)ccc2s1)C(=O)N1CCC[C@H]1C(=O)N(CCC(=O)NCCCCC#Cc1cccc2c1CN(C1CCC(=O)NC1=O)C2=O)c1ccc(Cl)c(F)c1 (stereo partly drawn) [Compound 639, ((2-(((2S)-1-((2S)-2-((4-chloro-3-fluorophenyl)(3-((6-(2-(2,6-dioxopiperidin-3-yl)-1-oxoisoindolin-4-yl)hex-5-yn-1-yl)amino)-3-oxopropyl)carbamoyl)pyrrolidin-1-yl)-3,3-dimethyl-1-oxobutan-2-yl)carbamoyl)benzo[b]thiophen-5-yl)difluoromethyl)phosphonic acid]"
,100 to 1000 nM,100 to 1000 nM,< 100 nM,"CC(C)(C)[C@H](NC(=O)c1cc2cc(C(F)(F)P(=O)(O)O)ccc2s1)C(=O)N1CCC[C@H]1C(=O)N(CCC(=O)NCCCC#Cc1cccc2c1CN(C1CCC(=O)NC1=O)C2=O)c1ccc(-c2cccs2)cc1 (stereo partly drawn) [Compound 648, ((2-(((2S)-1-((2S)-2-((3-((5-(2-(2,6-dioxopiperidin-3-yl)-1-oxoisoindolin-4-yl)pent-4-yn-1-yl)amino)-3-oxopropyl)(4-(thiophen-2-yl)phenyl)carbamoyl)pyrrolidin-1-yl)-3,3-dimethyl-1-oxobutan-2-yl)carbamoyl)benzo[b]thiophen-5-yl)difluoromethyl)phosphonic acid]"
> 300 nM,,1000 to 10000 nM,,"CC(C)(C)[C@H](NC(=O)c1cc2cc(C(F)(F)P(=O)(O)O)ccc2s1)C(=O)N1CCC[C@H]1C(=O)N(CCC(=O)NCCCC#Cc1cccc2c1CN(C1CCC(=O)NC1=O)C2=O)c1cccc(-c2ccccc2)c1 (stereo partly drawn) [Compound 649, ((2-(((2S)-1-((2S)-2-([1,1′-biphenyl]-3-yl(3-((5-(2-(2,6-dioxopiperidin-3-yl)-1-oxoisoindolin-4-yl)pent-4-yn-1-yl)amino)-3-oxopropyl)carbamoyl)pyrrolidin-1-yl)-3,3-dimethyl-1-oxobutan-2-yl)carbamoyl)benzo[b]thiophen-5-yl)difluoromethyl)phosphonic acid]"

# Second part, the compound before the results:
Compound,DC50 [1],DC50 [2],DC50 [3],"DC50 (MOLM-16 cells, class symbols, read-out: DC50 S5 MOLM-16)"
"CC(C)(C)[C@H](NC(=O)c1cc2cc(C(F)(F)P(=O)(O)O)ccc2s1)C(=O)N1C[C@@H](OCc2ccccc2)C[C@H]1C(=O)N(CCC(=O)NCCCC#Cc1cccc2c1CN(C1CCC(=O)NC1=O)C2=O)c1ccc(Br)cc1 (stereo partly drawn) [Compound 623, ((2-(((2S)-1-((2S,4S)-4-(benzyloxy)-2-((4-bromophenyl)(3-((5-(2-(2,6-dioxopiperidin-3-yl)-1-oxoisoindolin-4-yl)pent-4-yn-1-yl)amino)-3-oxopropyl)carbamoyl)pyrrolidin-1-yl)-3,3-dimethyl-1-oxobutan-2-yl)carbamoyl)benzo[b]thiophen-5-yl)difluoromethyl)phosphonic acid]",> 300 nM,,,
"CC(C)(C)[C@H](NC(=O)c1cc2cc(C(F)(F)P(=O)(O)O)ccc2s1)C(=O)N1C[C@H](OCc2ccc(C#Cc3cccc4c3CN(C3CCC(=O)NC3=O)C4=O)cc2)C[C@H]1C(=O)Nc1ncc(-c2ccccc2)s1 (stereo partly drawn) [Compound 632, ((2-(((2S)-1-((2S,4R)-4-((4-((2-(2,6-dioxopiperidin-3-yl)-1-oxoisoindolin-4-yl)ethynyl)benzyl)oxy)-2-((5-phenylthiazol-2-yl)carbamoyl)pyrrolidin-1-yl)-3,3-dimethyl-1-oxobutan-2-yl)carbamoyl)benzo[b]thiophen-5-yl)difluoromethyl)phosphonic acid]",> 300 nM,,,
"CCN1CC[C@H]2CC[C@@H](C(=O)N(CCC(=O)NCCCC#Cc3cccc4c3CN(C3CCC(=O)NC3=O)C4=O)c3ccc(Br)cc3)N2C(=O)[C@@H](NC(=O)c2cc3cc(C(F)(F)P(=O)(O)O)ccc3s2)C1 (stereo partly drawn) [Compound 627, ((2-(((5S,8S,10aR)-8-((4-bromophenyl)(3-((5-(2-(2,6-dioxopiperidin-3-yl)-1-oxoisoindolin-4-yl)pent-4-yn-1-yl)amino)-3-oxopropyl)carbamoyl)-3-ethyl-6-oxodecahydropyrrolo[1,2-a][1,5]diazocin-5-yl)carbamoyl)benzo[b]thiophen-5-yl)difluoromethyl)phosphonic acid]",> 300 nM,,,
"CC(C)(C)[C@H](NC(=O)c1cc2cc(C(F)(F)P(=O)(O)O)ccc2s1)C(=O)N1CCC[C@H]1C(=O)N(CC(=O)NCCCCC#Cc1cccc2c1CN(C1CCC(=O)NC1=O)C2=O)c1ccc(Cl)cc1 (stereo partly drawn) [Compound 641, ((2-(((2S)-1-((2S)-2-((4-chlorophenyl)(2-((6-(2-(2,6-dioxopiperidin-3-yl)-1-oxoisoindolin-4-yl)hex-5-yn-1-yl)amino)-2-oxoethyl)carbamoyl)pyrrolidin-1-yl)-3,3-dimethyl-1-oxobutan-2-yl)carbamoyl)benzo[b]thiophen-5-yl)difluoromethyl)phosphonic acid]",> 300 nM,,> 10000 nM,
"CC(C)(C)[C@H](NC(=O)c1cc2cc(C(F)(F)P(=O)(O)O)ccc2s1)C(=O)N1C[C@H](OCc2ccccc2)C[C@H]1C(=O)N(CCC(=O)NCCCCCC#Cc1cccc2c1CN(C1CCC(=O)NC1=O)C2=O)c1ccc(Br)cc1 (stereo partly drawn) [Compound 620, ((2-(((2S)-1-((2S,4R)-4-(benzyloxy)-2-((4-bromophenyl)(3-((7-(2-(2,6-dioxopiperidin-3-yl)-1-oxoisoindolin-4-yl)hept-6-yn-1-yl)amino)-3-oxopropyl)carbamoyl)pyrrolidin-1-yl)-3,3-dimethyl-1-oxobutan-2-yl)carbamoyl)benzo[b]thiophen-5-yl)difluoromethyl)phosphonic acid]",> 300 nM,,,
"CCN1CC[C@H]2CC[C@@H](C(=O)N(CCC(=O)NCCCCCC#Cc3cccc4c3CN(C3CCC(=O)NC3=O)C4=O)c3ccc(Br)cc3)N2C(=O)[C@@H](NC(=O)c2cc3cc(C(F)(F)P(=O)(O)O)ccc3s2)C1 (stereo partly drawn) [Compound 629, ((2-(((5S,8S,10aR)-8-((4-bromophenyl)(3-((7-(2-(2,6-dioxopiperidin-3-yl)-1-oxoisoindolin-4-yl)hept-6-yn-1-yl)amino)-3-oxopropyl)carbamoyl)-3-ethyl-6-oxodecahydropyrrolo[1,2-a][1,5]diazocin-5-yl)carbamoyl)benzo[b]thiophen-5-yl)difluoromethyl)phosphonic acid]",> 300 nM,,,
"CCN1CC[C@H]2CC[C@@H](C(=O)N(CCC(=O)N3CCC(C#Cc4cccc5c4CN(C4CCC(=O)NC4=O)C5=O)CC3)c3ccc(Br)cc3)N2C(=O)[C@@H](NC(=O)c2cc3cc(C(F)(F)P(=O)(O)O)ccc3s2)C1 (stereo partly drawn) [Compound 630, ((2-(((5S,8S,10aR)-8-((4-bromophenyl)(3-(4-((2-(2,6-dioxopiperidin-3-yl)-1-oxoisoindolin-4-yl)ethynyl)piperidin-1-yl)-3-oxopropyl)carbamoyl)-3-ethyl-6-oxodecahydropyrrolo[1,2-a][1,5]diazocin-5-yl)carbamoyl)benzo[b]thiophen-5-yl)difluoromethyl)phosphonic acid]",> 300 nM,,,
